In patent publication US20250034207A1, “PEPTIDES AND PEPTIDE CONJUGATES FOR TREATING MENTAL DISORDERS” (Kyoto University, priority 2016, published 2025):
No end group written: not given here.

System: ddY mice
Assay: Tail suspension test in mice after oral administration
Type: in vivo
Details: for Activity Rating: rating excellent, good, moderate or low from percent reduction of control immobility, 0.3 mg/kg; for % of SEQ ID NO: 1 activity: reduction of control immobility relative to SEQ ID NO:1, 0.3 mg/kg oral, average where tested more than once; for Immobility time for peptides dosed at 0.3 mg/kg as percent of control immobility time, Example 16: Example 16 (retest)
Method: The tail suspension test is an experimental method used to screen potential antidepressant drugs (Can et al., 2012, J Vis Exp., 59: e3769). In the test as implemented in the Examples, a test substance is orally administered to mice (ddY mice, males, 24˜30 g) and 30 minutes later the mice are suspended by their tails for six minutes. The amount of time that a mouse is immobile (i.e. is not displaying escape behavior) during the six minutes is measured to provide an immobility time. The administration of anti-depressant drugs such as imipramine reduces immobility time. Therefore, if a reduction of immobility time is observed when testing a test substance, it can be concluded that the test substance has anti-depressant properties. Immobility is considered a despair state, and, therefore, a reduction of immobility time also indicates an increase in motivation (i.e., that the test substance has motivation-increasing properties).

| Substance | Activity Rating | % of SEQ ID NO: 1 activity [%] | also measured |
| --- | --- | --- | --- |
| STQAQQSY (Designed peptide) [SEQ ID NO:29] | Good | 50.93 | Immobility time for peptides dosed at 0.3 mg/kg as percent of control immobility time, Example 13 (0.3 mg/kg oral): 74.44% of control immobility time |
| LSSTQAQQSYLQGF (Designed peptide) [SEQ ID NO:43] | Low | −19.33 | Immobility time for peptides dosed at 0.3 mg/kg as percent of control immobility time, Example 15 (0.3 mg/kg oral): 109.70% of control immobility time |
| FFLSSTQAQQSYLQ (Designed peptide) [SEQ ID NO:44] | Good | 33.91 | Immobility time for peptides dosed at 0.3 mg/kg as percent of control immobility time, Example 15 (0.3 mg/kg oral): 82.98% of control immobility time; Immobility time compared to control (0.3 mg/kg oral, Example 15 (FIG. 11)): decreased |
| SSTQAQQSY (Designed peptide) [SEQ ID NO:3] | Excellent | 64.81 | Immobility time for peptides dosed at 0.3 mg/kg as percent of control immobility time, Example 3 (FIG. 3A) (0.3 mg/kg oral): 67.47% of control immobility time |
| LSSTQAQQ (Designed peptide) [SEQ ID NO:27] | Good | 46.52 | Immobility time for peptides dosed at 0.3 mg/kg as percent of control immobility time, Example 13 (0.3 mg/kg oral): 76.65% of control immobility time |
| LSSTQAQQSYW (Designed peptide) [SEQ ID NO:37] | Excellent | 97.25 | Immobility time for peptides dosed at 0.3 mg/kg as percent of control immobility time, Example 14 (0.3 mg/kg oral): 39.08% of control immobility time; Immobility time for peptides dosed at 0.3 mg/kg as percent of control immobility time, Example 16 (0.3 mg/kg oral): 58.54% of control immobility time |
| AQQSY (Designed peptide) [SEQ ID NO:5] | Moderate | 26.16 | Immobility time for peptides dosed at 0.3 mg/kg as percent of control immobility time, Example 3 (FIG. 3B) (0.3 mg/kg oral): 86.87% of control immobility time |
| LSSTQAQQSW (Designed peptide) [SEQ ID NO:6] | Excellent | 122.71 | Immobility time for peptides dosed at 0.3 mg/kg as percent of control immobility time, Example 6 (0.3 mg/kg oral): 38.41% of control immobility time |
| WLSSTQAQQSY (Designed peptide) [SEQ ID NO:38] | Good | 55.25 | Immobility time for peptides dosed at 0.3 mg/kg as percent of control immobility time, Example 14 (0.3 mg/kg oral): 72.27% of control immobility time |
| AQQSYW (Designed peptide) [SEQ ID NO:41] | Low | 5.32 | Immobility time for peptides dosed at 0.3 mg/kg as percent of control immobility time, Example 14 (0.3 mg/kg oral): 97.33% of control immobility time |
| SSTQAQQS (Designed peptide) [SEQ ID NO:28] | Excellent | 82.07 | Immobility time for peptides dosed at 0.3 mg/kg as percent of control immobility time, Example 13 (0.3 mg/kg oral): 60.34% of control immobility time; Immobility time for peptides dosed at 0.3 mg/kg as percent of control immobility time, Example 16 (0.3 mg/kg oral): 57.29% of control immobility time |
| WLSSTQAQQSYW (Designed peptide) [SEQ ID NO:39] | Moderate | 18.05 | Immobility time for peptides dosed at 0.3 mg/kg as percent of control immobility time, Example 14 (0.3 mg/kg oral): 90.94% of control immobility time |
| ESFFLSSTQAQQSY (Designed peptide) [SEQ ID NO:42] | Low | −39.13 | Immobility time for peptides dosed at 0.3 mg/kg as percent of control immobility time, Example 15 (0.3 mg/kg oral): 119.64% of control immobility time |
| LSSTQAQQS (Designed peptide) [SEQ ID NO:2] | Moderate | 25.28 | Immobility time for peptides dosed at 0.3 mg/kg as percent of control immobility time, Example 3 (FIG. 3A) (0.3 mg/kg oral): 87.31% of control immobility time |
| LSSTQAQQSY-NH2 [SEQ ID NO:36, C-terminal amidated peptide conjugate] | Excellent | 89.12 | Immobility time for peptides dosed at 0.3 mg/kg as percent of control immobility time, Example 6 (0.3 mg/kg oral): 55.27% of control immobility time |
| LSSTQAQQSY (Designed peptide) [SEQ ID NO:1] | Excellent | 100 | Immobility time for peptides dosed at 0.3 mg/kg as percent of control immobility time, Example 1 (0.3 mg/kg oral, Example 1): 44.13% of control immobility time; Immobility time for peptides dosed at 0.3 mg/kg as percent of control immobility time, Example 3 (FIG. 3A) (0.3 mg/kg oral): 42.41% of control immobility time; Immobility time for peptides dosed at 0.3 mg/kg as percent of control immobility time, Example 3 (FIG. 3B) (0.3 mg/kg oral): 64.04% of control immobility time |
| LSSTQAQQSF (Designed peptide) [SEQ ID NO:7] | Excellent | 115.46 | Immobility time for peptides dosed at 0.3 mg/kg as percent of control immobility time, Example 6 (0.3 mg/kg oral): 42.05% of control immobility time |
| LSSTQ (Designed peptide) [SEQ ID NO:4] | Good | 36.80 | Immobility time for peptides dosed at 0.3 mg/kg as percent of control immobility time, Example 3 (FIG. 3B) (0.3 mg/kg oral): 81.53% of control immobility time |
| WLSSTQ (Designed peptide) [SEQ ID NO:40] | Good | 56.36 | Immobility time for peptides dosed at 0.3 mg/kg as percent of control immobility time, Example 14 (0.3 mg/kg oral): 55.34% of control immobility time; Immobility time for peptides dosed at 0.3 mg/kg as percent of control immobility time, Example 16 (0.3 mg/kg oral): 88.09% of control immobility time |
